Assay [1] has as its system Tasters. The assay can be described thus: Sensory evaluation of test material as a sweetener (taster panel, scale of 1 to 10). Set-up: key: not observed or only minimally observed (−); highly observed (+++). As to conditions: for Sweet Intensity: averaged taster scores, scale 1 to 10 with Reb A 400 ppm = 5 and sucrose 6.5% = 10, noseclips, blinded; for Sweet Quality: based upon temporal profile (sweet onset, linger) and attributes such as syrupy, round, clean; for Bitterness: taster comments and scores converted into symbols. Type of assay: in vivo, human. From the text:
Sample preparation protocol for testing material as a sweetener: Tasters wore noseclips and were blinded to the identity of the test material. Tasters sampled 400 ppm Rebaudioside A and 6.5 Brix sucrose prior to the test material. Reb A 400 ppm was assigned a 5 on the scale of 1 to 10 as shown in FIG. 8 and sucrose (6.5%) was assigned a 10 on the same scale. Tasters were asked to rinse their mouths 5 times with water between tasting each sample. Tasters were then given the test article and asked to rank the test article for sweetness on the noted scale. Tasters were also asked to provide comments about bitterness, linger, flavors, and any other perceptions.
Numerical scores from all tasters were averaged and, taken together with comments regarding sweet quality, bitterness and off-tastes, converted into the symbols “−,” “+,” “++,” and “+++” to indicate whether a given characteristic was not observed or only minimally observed (−) or highly observed (+++). For example, a sample having a “−” in both sweet intensity and bitterness should be understood as a sample having minimal or no sweetness and minimal or no bitter flavor. By contrast, a sample having a “+++” in both sweet intensity and bitterness should be understood as a sample having highly observed sweet intensity and bitterness.
Preparation of Reb A in this experiment: Prepare 400 ppm Reb A in water (pH=7): 40 mg of Rebaudioside A was dissolved with stirring in 100 ml of water at room temperature.
Preparation of Sucrose in this experiment: Prepare 6.5% Sucrose in water (pH=7): weight 6.5 gr of Sucrose and dissolve it in 93.5 gr water (total 100 gr)
• Sweet quality was based upon a temporal profile (sweet onset, linger) and attributes such as syrupy, round, clean.

The test system of assay [2] is Tasters. The assay can be described thus: Sweetness enhancement, Forced Choice Test. It counts as in vivo, human. More on the design: key: not observed or only minimally observed (−); highly observed (+++). As to conditions: sweetener (4 Brix sucrose, 4 Brix HFCS or 200 ppm Rebaudioside A) with vs without test compound at a level below 1.5% SEV. As for the experimental part: Sample preparation protocol: For testing the material as a sweet/flavor modifying ingredient, two samples were prepared: a 4° Brix high-fructose corn syrup (HFCS) control solution and a 4° Brix HFCS solution with a known concentration of test ingredient.
Sample Preparation: 4° Brix HFCS control solution was prepared by adding 50.89 grams of 78.60° Brix HFCS to 1000 g phosphoric acid base which was prepared by adding phosphoric acid dropwise into 1 L of Aquafina Water until pH 3.1 was obtained. pH was measured using a METTLER TOLEDO pH meter.
In the case of a different Brix of HFCS starting syrup, the following formula can be used for the amount of HFCS required to make HFCS control solution. 4° Brix/100*1000 mL/(78.5° Brix/100)=50.96
If any cloudiness persisted, the sample solution was passed through a paper filter. For some low soluble compounds, Branson 2800 Ultra Sonic Bath was used to dissolve the material. If any cloudiness persisted, the sample solution was passed through a paper filter. Solubility was confirmed by shining a laser pointer through the solution. If no diffraction was observed then it was assumed that the material was soluble
12-16 tasters were presented with these two(2) numbered samples: one contained a sweetener such as 4Brix sucrose, 4 Brix high-fructose corn syrup or 200 ppm Rebaudioside A in phosphate buffer. […]

As for `C=C1C[C@@]23CC[C@H]4[C@@](C)(CCC[C@@]4(C)C(=O)NCC(=O)OC)[C@@H]2CC[C@]1(O[C@@H]1O[C@H](CO)[C@@H](O)[C@H](O[C@@H]2O[C@H](CO)[C@@H](O)[C@H](O)[C@H]2O)[C@H]1O[C@@H]1O[C@H](CO)[C@@H](O)[C@H](O)[C@H]1O)C3` [Compound 5A1, Rebaudioside B—Glycine Methyl ester], in the assay with Tasters [1], the “Sweet Intensity” value is “−”, the “Sweet Quality” value was “−” and the Bitterness entry is reported as “+++”.
Turning to `C=C1C[C@@]23CC[C@H]4[C@@](C)(CCC[C@@]4(C)C(=O)NCC(=O)O)[C@@H]2CC[C@]1(O[C@@H]1O[C@H](CO)[C@@H](O)[C@H](O[C@@H]2O[C@H](CO)[C@@H](O)[C@H](O)[C@H]2O)[C@H]1O[C@@H]1O[C@H](CO)[C@@H](O)[C@H](O)[C@H]1O)C3` [Compound 5A2, Rebaudioside B-Glycine], the Enhancement entry in the assay on Tasters [2] is given as “+++”. The “Sweet Intensity” value with Tasters [1] is on record as “+++”.
Regarding `C=C1C[C@@]23CC[C@H]4[C@@](C)(CCC[C@@]4(C)C(=O)N[C@@H](C)C(=O)OC)[C@@H]2CC[C@]1(O[C@@H]1O[C@H](CO)[C@@H](O)[C@H](O[C@@H]2O[C@H](CO)[C@@H](O)[C@H](O)[C@H]2O)[C@H]1O[C@@H]1O[C@H](CO)[C@@H](O)[C@H](O)[C@H]1O)C3` [Compound 5B1, Rebaudioside B- L-Alanine Methyl ester], in the assay on Tasters [1], the “Sweet Quality” value is recorded as “−” and the Bitterness result was “+++”.
On to `C=C1C[C@@]23CC[C@H]4[C@@](C)(CCC[C@@]4(C)C(=O)N[C@H](C)C(=O)OC)[C@@H]2CC[C@]1(O[C@@H]1O[C@H](CO)[C@@H](O)[C@H](O[C@@H]2O[C@H](CO)[C@@H](O)[C@H](O)[C@H]2O)[C@H]1O[C@@H]1O[C@H](CO)[C@@H](O)[C@H](O)[C@H]1O)C3` [Compound 5C1, Rebaudioside B- D-Alanine Methyl ester], for which the “Sweet Quality” value in the assay with Tasters [1] was “−”.
In the case of `C=C1C[C@@]23CC[C@H]4[C@@](C)(CCC[C@@]4(C)C(=O)N[C@@H](C(=O)OC)C(C)C)[C@@H]2CC[C@]1(O[C@@H]1O[C@H](CO)[C@@H](O)[C@H](O[C@@H]2O[C@H](CO)[C@@H](O)[C@H](O)[C@H]2O)[C@H]1O[C@@H]1O[C@H](CO)[C@@H](O)[C@H](O)[C@H]1O)C3` [Compound 5D1, Rebaudioside B- D-Valine Methyl ester], in the assay on Tasters [1], the “Sweet Intensity” value is “−”, the “Sweet Quality” value is reported as “−” and the Bitterness entry is “+++”.
With `C=C1C[C@@]23CC[C@H]4[C@@](C)(CCC[C@@]4(C)C(=O)N[C@@H](C(=O)O)C(C)C)[C@@H]2CC[C@]1(O[C@@H]1O[C@H](CO)[C@@H](O)[C@H](O[C@@H]2O[C@H](CO)[C@@H](O)[C@H](O)[C@H]2O)[C@H]1O[C@@H]1O[C@H](CO)[C@@H](O)[C@H](O)[C@H]1O)C3` [Compound 5D2], in the assay with Tasters [1], the “Sweet Intensity” value is on record as “+++” and the Bitterness entry was “−”.
Regarding `C=C1C[C@@]23CC[C@H]4[C@@](C)(CCC[C@@]4(C)C(=O)N[C@H](Cc4ccccc4)C(=O)OC)[C@@H]2CC[C@]1(O[C@@H]1O[C@H](CO)[C@@H](O)[C@H](O[C@@H]2O[C@H](CO)[C@@H](O)[C@H](O)[C@H]2O)[C@H]1O[C@@H]1O[C@H](CO)[C@@H](O)[C@H](O)[C@H]1O)C3` [Compound 5E1, Rebaudioside B- D-Phenylalanine Methyl ester], in the assay with Tasters [1], the “Sweet Intensity” value is recorded as “−”, the “Sweet Quality” value is “−” and the Bitterness result is reported as “+++”.
Consider `C=C1C[C@@]23CC[C@H]4[C@@](C)(CCC[C@@]4(C)C(=O)N[C@H](Cc4ccccc4)C(=O)O)[C@@H]2CC[C@]1(O[C@@H]1O[C@H](CO)[C@@H](O)[C@H](O[C@@H]2O[C@H](CO)[C@@H](O)[C@H](O)[C@H]2O)[C@H]1O[C@@H]1O[C@H](CO)[C@@H](O)[C@H](O)[C@H]1O)C3` [Compound 5E2], for which, in the assay with Tasters [1], the Bitterness result was “−”.
`C=C1C[C@@]23CC[C@H]4[C@@](C)(CCC[C@@]4(C)C(=O)O[C@@H]4O[C@H](CO)[C@@H](O)[C@H](O)[C@@H]4O)[C@@H]2CC[C@]1(O[C@@H]1O[C@H](CO)[C@@H](O)[C@H](O[C@@H]2O[C@H](CO)[C@@H](O)[C@H](O)[C@H]2O)[C@H]1O[C@@H]1O[C@H](CO)[C@@H](O)[C@H](O)[C@H]1O)C3` [Compound 7A, Rebaudioside B Mannoside]: the “Sweet Intensity” value in the assay with Tasters [1] was “+++”.
`C=C1C[C@@]23CC[C@H]4[C@@](C)(CCC[C@@]4(C)C(=O)O[C@@H]4OC[C@@H](O)[C@H](O)[C@H]4O)[C@@H]2CC[C@]1(O[C@@H]1O[C@H](CO)[C@@H](O)[C@H](O[C@@H]2O[C@H](CO)[C@@H](O)[C@H](O)[C@H]2O)[C@H]1O[C@@H]1O[C@H](CO)[C@@H](O)[C@H](O)[C@H]1O)C3` [Compound 7C, Rebaudioside B Xyloside]: in the assay with Tasters [1], the “Sweet Intensity” value is “+++”.
On to `C=C1C[C@@]23CC[C@H]4[C@@](C)(CCC[C@@]4(C)C(=O)O[C@@H]4OC[C@@H](O)[C@H](O)[C@H]4O)[C@@H]2CC[C@]1(O[C@@H]1O[C@H](CO)[C@@H](O)[C@H](O[C@@H]2O[C@H](CO)[C@@H](O)[C@H](O)[C@H]2O)[C@H]1O[C@@H]1O[C@@H](C)[C@H](O)[C@@H](O)[C@H]1O)C3` [Compound 7E, Rebaudioside C Xyloside], for which, in the assay with Tasters [1], the “Sweet Intensity” value is reported as “−”, the “Sweet Quality” value is listed as “−” and the Bitterness result is “−”.
For `C=C1C[C@@]23CC[C@H]4[C@@](C)(CCC[C@@]4(C)C(=O)O[C@@H]4O[C@H](CO)[C@H](O)[C@H](O)[C@H]4O)[C@@H]2CC[C@]1(O[C@@H]1O[C@H](CO)[C@@H](O)[C@H](O[C@@H]2O[C@H](CO)[C@@H](O)[C@H](O)[C@H]2O)[C@H]1O[C@@H]1O[C@@H](C)[C@H](O)[C@@H](O)[C@H]1O)C3` [Compound 7F, Rebaudioside C Galactoside], in the assay on Tasters [1], the “Sweet Intensity” value is reported as “−”, the “Sweet Quality” value is on record as “−” and the Bitterness result is reported as “−”.
On to `C=C1C[C@@]23CC[C@H]4[C@@](C)(CCC[C@@]4(C)C(=O)O[C@@H]4O[C@H](CO)[C@@H](O)[C@H](O)[C@H]4O[C@@H]4O[C@H](CO)[C@@H](O)[C@H](O)[C@H]4O)[C@@H]2CC[C@]1(O[C@@H]1O[C@H](CO)[C@@H](O)[C@H](O[C@@H]2O[C@H](CO)[C@@H](O)[C@H](O)[C@H]2O)[C@H]1O[C@@H]1O[C@@H](C)[C@H](O)[C@@H](O)[C@H]1O)C3` [Compound 7G, Rebaudioside K], for which the Enhancement result with Tasters [2] is given as “−”. Further, in the assay on Tasters [1], the “Sweet Intensity” value is reported as “−”, the “Sweet Quality” value was “−” and the Bitterness result is on record as “−”.
On to `C=C1C[C@@]23CC[C@H]4[C@@](C)(CCC[C@@]4(C)C(=O)O[C@@H]4O[C@H](CO)[C@@H](O)[C@H](O)[C@H]4O)[C@@H]2CC[C@]1(O[C@@H]1O[C@H](CO)[C@@H](O)[C@H](O[C@@H]2O[C@H](CO)[C@@H](O)[C@H](O)[C@H]2O)[C@H]1O[C@@H]1O[C@H](CO)[C@@H](O)[C@H](O)[C@H]1O)C3` [Rebaudioside A], for which the “Sweet Intensity” value with Tasters [1] is on record as “+++”.
For `OC[C@H]1O[C@@](CO)(O[C@H]2O[C@H](CO)[C@@H](O)[C@H](O)[C@H]2O)[C@@H](O)[C@@H]1O` [Sucrose, reference compound], in the assay with Tasters [1], the “Sweet Quality” value is recorded as “+++” and the Bitterness entry is on record as “−”.

Source of the values: patent publication US10494397B2, “Rebaudioside analogs” (PepsiCo, Inc., priority 2016, dated 2019).
